Where a SMILES comes first, the peptide text is derived from it. [ ]: non-standard residue; d: D form. The star is where a group is joined. X1 = O=C(O)c1cc(NC(=S)*)ccc1-c1c2ccc(=O)cc-2oc2cc(O)ccc12; 2Nal = N[C@@H](Cc1ccc2ccccc2c1)C(=O)O; Bta = N[C@@H](Cc1csc2ccccc12)C(=O)O; Pip = O=C(O)[C@@H]1CCCCN1; CH2PO3H2 = O=P(O)(O)C*; Ahx = NCCCCCC(=O)O

Experimental findings from patent US20080194524A1, “Compounds For the Inhibition of Undesired Cell Proliferation and Use Thereof” (JERINI AG, priority 2003, published 2008) are described below.

Chain of hPin1 (Protein interacting with NIMA (-kinase)) (Q13526 whole entry): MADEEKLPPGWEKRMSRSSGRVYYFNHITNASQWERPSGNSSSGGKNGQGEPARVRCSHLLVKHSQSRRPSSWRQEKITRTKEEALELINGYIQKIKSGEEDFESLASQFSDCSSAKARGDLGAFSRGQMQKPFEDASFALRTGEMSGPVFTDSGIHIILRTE

The first assay addresses hPin1 (Protein interacting with NIMA (-kinase)) (Homo sapiens, UniProt Q13526). As to the kind of experiment: protease-coupled PPIase assay, hPin1.
Conditions: not given
The format is biochemical.
Consider `CC(=O)N[C@@H](Cc1csc2ccccc12)C(=O)N[C@H](CSCP(=O)(O)O)C(=O)N1CCCC[C@H]1C(=O)N[C@@H](Cc1ccc2ccccc2c1)C(N)=O` (stereo in doubt) [Compound 3, {2-(2-Acetylamino-3-benzo[b]thiophen-3-yl-propionylamino)-3-[2-(1-carbamoyl-2-naphthalen-2-yl-ethylcarbamoyl)-piperidin-1-yl]-3-oxo-propylsulfanylmethyl}-phosphonic acid], for which the IC50 was below 1000 nM. Compound `NC(=O)[C@H](Cc1ccc2ccccc2c1)NC(=O)[C@@H]1CCCCN1C(=O)[C@H](CSCP(=O)(O)O)NC(=O)[C@H](Cc1csc2ccccc12)NC(=O)CCCCCNC(=S)Nc1ccc(-c2c3ccc(=O)cc-3oc3cc(O)ccc23)c(C(=O)O)c1` [Compound 9] ({X1-Ahx}-[Bta]C(CH2PO3H2)[Pip][2Nal]-NH2) came in with an IC50 below 1000 nM.

Staying with this assay, now noted: hPin1 6 nM; substrate Ac-Ala-Ala-Ser(PO3H2)-Pro-Arg-pNA, trypsin; 35 mM HEPES pH 7.8, 6° C.; read-out: Specificity of the inhibition with rotamases, Target T-1 (IC50 class).
Consider `NC(=O)[C@H](Cc1ccc2ccccc2c1)NC(=O)[C@@H]1CCCCN1C(=O)[C@H](CSCP(=O)(O)O)NC(=O)CCc1cccs1` [Compound 16, [3-[2-(1-Carbamoyl-2-naphthalen-2-yl-ethylcarbamoyl)-piperidin-1-yl]-3-oxo-2-(3-thiophen-2-yl-propionylamino)-propylsulfanylmethyl]-phosphonicacid], for which the IC50 lay in the range of 1000 to 10000 nM. Still for that read-out and setting: next, `COC(=O)N[C@@H](CSCP(=O)(O)O)C(=O)N1CCCC[C@H]1C(=O)N[C@@H](Cc1ccc2ccccc2c1)C(N)=O` [Compound 45, {3-[2-(1-Carbamoyl-2-naphthalen-2-yl-ethylcarbamoyl)-piperidin-1-yl]-2-methoxycarbonylamino-3-oxo-propylsulfanylmethyl}-phosphonic acid]: 1000 to 10000 nM. Turning to `NC(=O)[C@H](Cc1ccc2ccccc2c1)NC(=O)[C@@H]1CCCCN1C(=O)[C@H](CSCP(=O)(O)O)NC(=O)OCc1ccccc1` [Compound 31, {2-Benzyloxycarbonylamino-3-[2-(1-carbamoyl-2-naphthalen-2-yl-ethylcarbamoyl)-piperidin-1-yl]-3-oxo-propylsulfanylmethyl}-phosphonic acid], the IC50 was below 1000 nM. Take `CC(=O)N[C@@H](CSCP(=O)(O)O)C(=O)N1CCCC[C@H]1C(=O)N[C@@H](Cc1ccc2ccccc2c1)C(N)=O` [Compound 30, {2-Acetylamino-3-[2-(1-carbamoyl-2-naphthalen-2-yl-ethylcarbamoyl)-piperidin-1-yl]-3-oxo-propylsulfanylmethyl}-phosphonic acid]: the IC50 is 1000 to 10000 nM. For `O=C(NC(Cc1ccc2ccccc2c1)c1ccccc1)[C@@H]1CCCCN1C(=O)CSCP(=O)(O)O` (stereo partly drawn) [Compound 73, {2-[2-(2-Naphthalen-2-yl-1-phenyl-ethylcarbamoyl)-piperidin-1-yl]-2-oxo-ethylsulfanylmethyl}-phosphonic acid], the concentration for half-maximal inhibition (IC50) was below 1000 nM. On to `NC(=O)[C@H](Cc1ccc2ccccc2c1)NC(=O)[C@@H]1CCCCN1C(=O)[C@H](COCP(=O)(O)O)NC(=O)OCC1c2ccccc2-c2ccccc21` [Compound 4, [3-[2-(1-Carbamoyl-2-naphthalen-2-yl-ethylcarbamoyl)-piperidin-1-yl]-2-(9H-fluoren-9-ylmethoxycarbonylamino)-3-oxo-propoxymethyl]-phosphonic acid], for which the concentration for half-maximal inhibition (IC50) is 1000 to 10000 nM.

Consider `NC(=O)[C@H](Cc1ccc2ccccc2c1)NC(=O)[C@@H]1CCCCN1C(=O)[C@H](CSCP(=O)(O)O)NC(=O)C1CCc2ccccc2C1` (stereo partly drawn) [Compound 15, {3-[2-(1-Carbamoyl-2-naphthalen-2-yl-ethylcarbamoyl)-piperidin-1-yl]-3-oxo-2-[(1.2.3.4-tetrahydro-naphthalene-2-carbonyl)-amino]-propylsulfanylmethyl}-phosphonicacid], for which the concentration for half-maximal inhibition (IC50) fell in the range of 1000 to 10000 nM. Consider `NC(=O)[C@H](Cc1ccc2ccccc2c1)NC(=O)[C@@H]1CCCCN1C(=O)[C@H](CSCP(=O)(O)O)NC(=O)Cc1ccc2c(c1)OCO2` [Compound 56, {2-(2-Benzo[1.3]dioxol-5-yl-acetylamino)-3-[2-(1-carbamoyl-2-naphthalen-2-yl-ethylcarbamoyl)-piperidin-1-yl]-3-oxo-propylsulfanylmethyl}-phosphonic acid], for which the IC50 was below 1000 nM. `O=C(NC(Cc1ccc2ccccc2c1)c1nnco1)[C@@H]1CCCCN1C(=O)CSCP(=O)(O)O` (stereo partly drawn) [Compound 75, {2-[2-(2-Naphthalen-2-yl-1-[1,3,4]oxadiazol-2-yl-ethylcarbamoyl)-piperidin-1-yl]-2-oxo-ethylsulfanylmethyl}-phosphonic acid]: the IC50 is below 1000 nM.

`CS(=O)(=O)N[C@@H](CSCP(=O)(O)O)C(=O)N1CCCC[C@H]1C(=O)N[C@@H](Cc1ccc2ccccc2c1)C(N)=O` [Compound 51, {3-[2-(1-Carbamoyl-2-naphthalen-2-yl-ethylcarbamoyl)-piperidin-1-yl]-2-methanesulfonylamino-3-oxo-propylsulfanylmethyl}-phosphonic acid]: the IC50 lay within 1000 to 10000 nM. With `NC(=O)[C@H](Cc1ccc2ccccc2c1)NC(=O)[C@@H]1CCCCN1C(=O)[C@H](CSCP(=O)(O)O)NC(=O)C1(c2ccccc2)CCCC1` [Compound 33, {3-[2-(1-Carbamoyl-2-naphthalen-2-yl-ethylcarbamoyl)-piperidin-1-yl]-3-oxo-2-[(1-phenyl-cyclopentanecarbonyl)-amino]-propylsulfanylmethyl}-phosphonicacid], the IC50 lay in the range of 1000 to 10000 nM. Take `NC(=O)[C@H](Cc1ccc2ccccc2c1)NC(=O)[C@@H]1CCCCN1C(=O)[C@H](CSCP(=O)(O)O)NC(=O)Cc1ccc(Cl)cc1` [Compound 35, {3-[2-(1-Carbamoyl-2-naphthalen-2-yl-ethylcarbamoyl)-piperidin-1-yl]-2-[2-(4-chloro-phenyl)-acetylamino]-3-oxo-propylsulfanylmethyl}-phosphonicacid]: the IC50 is below 1000 nM. On the same count and under the same terms, the figure for `NC(=O)[C@H](Cc1ccc2ccccc2c1)NC(=O)[C@@H]1CCCCN1C(=O)[C@H](CSCP(=O)(O)O)NC(=O)CCc1ccccc1` [Compound 22, [3-[2-(1-Carbamoyl-2-naphthalen-2-yl-ethylcarbamoyl)-piperidin-1-yl]-3-oxo-2-(3-phenyl-propionylamino)-propylsulfanylmethyl]-phosphonicacid] is below 1000 nM; for `COc1ccc(NC(=O)CC(SCP(=O)(O)O)C(=O)N2CCCC[C@H]2C(=O)N[C@@H](Cc2ccc3ccccc3c2)C(N)=O)cc1` (mixture of isomers) [Compound 70, {2-[2-(1-Carbamoyl-2-naphthalen-2-yl-ethylcarbamoyl)-piperidin-1-yl]-1-[(4-methoxy-phenyl-carbamoyl)-methyl]-2-oxo-ethylsulfanylmethyl}-phosphonicacid] it is below 1000 nM. On to `NC(=O)[C@H](Cc1ccc2ccccc2c1)NC(=O)[C@@H]1CCCCN1C(=O)[C@H](CSCP(=O)(O)O)NC(=O)Cc1ccccc1Cl` [Compound 34, {3-[2-(1-Carbamoyl-2-naphthalen-2-yl-ethylcarbamoyl)-piperidin-1-yl]-2-[2-(2-chloro-phenyl)-acetylamino]-3-oxo-propylsulfanylmethyl}-phosphonicacid], for which the IC50 is below 1000 nM. Take `COc1ccc(CC(=O)N[C@@H](CSCP(=O)(O)O)C(=O)N2CCCC[C@H]2C(=O)N[C@@H](Cc2ccc3ccccc3c2)C(N)=O)cc1` [Compound 36, {3-[2-(1-Carbamoyl-2-naphthalen-2-yl-ethylcarbamoyl)-piperidin-1-yl]-2-[2-(4-methoxy-phenyl)-acetylamino]-3-oxo-propylsulfanylmethyl}-phosphonicacid]: the IC50 was below 1000 nM.

As to `NC(=O)[C@H](Cc1ccc2ccccc2c1)NC(=O)[C@@H]1CCCCN1C(=O)[C@H](CSCP(=O)(O)O)NC(=O)Cc1ccc(-c2ccccc2)cc1` [Compound 24, {2-(2-Biphenyl-4-yl-acetylamino)-3-[2-(1-carbamoyl-2-naphthalen-2-yl-ethylcarbamoyl)-piperidin-1-yl]-3-oxo-propylsulfanylmethyl}-phosphonic acid], the IC50 was below 1000 nM. On the same count and under the same terms, next, `NC(=O)[C@H](Cc1ccc2ccccc2c1)NC(=O)[C@@H]1CCCCN1C(=O)[C@H](CSCP(=O)(O)O)NS(=O)(=O)c1ccccc1` [Compound 48, {2-Benzenesulfonylamino-3-[2-(1-carbamoyl-2-naphthalen-2-yl-ethylcarbamoyl)-piperidin-1-yl]-3-oxo-propylsulfanylmethyl}-phosphonic acid]: below 1000 nM; `CCCCOC(=O)N[C@@H](CSCP(=O)(O)O)C(=O)N1CCCC[C@H]1C(=O)N[C@@H](Cc1ccc2ccccc2c1)C(N)=O` [Compound 44, {2-Butoxycarbonylamino-3-[2-(1-carbamoyl-2-naphthalen-2-yl-ethylcarbamoyl)-piperidin-1-yl]-3-oxo-propylsulfanylmethyl}-phosphonic acid]: 1000 to 10000 nM; `NC(=O)[C@H](Cc1ccc2ccccc2c1)NC(=O)[C@@H]1CCCCN1C(=O)[C@H](CSCP(=O)(O)O)NC(=O)c1cccc(Oc2ccccc2)c1` [Compound 14, [3-[2-(1-Carbamoyl-2-naphthalen-2-yl-ethylcarbamoyl)-piperidin-1-yl]-3-oxo-2-(3-phenoxy-benzoylamino)-propylsulfanylmethyl]-phosphonicacid]: below 1000 nM.

On to `NC(=O)[C@H](Cc1ccc2ccccc2c1)NC(=O)[C@@H]1CCCCN1C(=O)[C@H](CSCP(=O)(O)O)NC(=O)CCC(=O)c1ccc(Cl)cc1` [Compound 37, {3-[2-(1-Carbamoyl-2-naphthalen-2-yl-ethylcarbamoyl)-piperidin-1-yl]-2-[4-(4-chloro-phenyl)-4-oxo-butyrylamino]-3-oxo-propylsulfanylmethyl}-phosphonicacid], for which the IC50 is below 1000 nM. The same measure, in the same setting: next, `NC(=O)[C@H](Cc1ccc2ccccc2c1)NC(=O)[C@@H]1CCCCN1C(=O)[C@H](CSCP(=O)(O)O)NC(=O)CC1CCCCC1` [Compound 11, [3-[2-(1-Carbamoyl-2-naphthalen-2-yl-ethylcarbamoyl)-piperidin-1-yl]-2-(2-cyclohexyl-acetylamino)-3-oxo-propylsulfanylmethyl]-phosphonic acid]: 1000 to 10000 nM.

As usually defined, the IC50 is the concentration at which inhibition is half-maximal.
